Experimental data reported in patent publication US7459585B2, “Benzene derivatives and pharmaceutical use thereof” (Ajinomoto Co., Inc., priority 1998, dated 2008).
≈ marks a conversion by molar mass, not a printed value.

System: NF-kappa B
Assay: Evaluation of NF-kappa B inhibition (β-gal reporter, IL-1β-induced)
Assay type: cell-based
Conditions: Homo sapiens; β-gal reporter with NF-kappa B binding motif in SV40 large T-immortalized HUVEC; induced with 1 ng/ml IL-1β; read-out: NF-kB inhibiting activity IC50
Experimental: Cells used for the tests were those prepared by stably introducing E. coli β-galactosidase (β-gal) genes driven by SV 40 minimum promoter fused with 4 tandems of the AP-1 binding motif derived from human MMP-1 gene enhancer into human normal umbilical cord vein endothelial cells (HUVEC) immortalized with SV 40 large T antigen. The cells were subcultured in RPMI medium containing 10% of FBS, and were seeded on a 96-well plate in a concentration of 1×10^4/well on a day before the start of the experiments. A compound of the present invention was dissolved in DMSO to obtain a solution of a proper concentration, which was added into the 96-well plate so that the final DMSO concentration would be not higher than 1%. 30 minutes after the addition of the compound, phorbol-12-myristate-13-acetate (PMA) was added to each well so as to obtain the final concentration of 50 ng/ml. β-gal activity was determined 16 hours after with a chemiluminescent substrate (Galacton-Light-Plus: Boehringer Mannheim) according to a protocol attached to the reagent. A Luminescence detector (ATTO) was used for the determination.
The tests were carried out in the same manner as that of Example 56. Concretely, the AP-1 binding motif of the reporter genes in Example 56 was replaced with the NF-kappa B binding motif derived from immunoglobulin kappa light chain enhancer, and NF-kappa B transcriptional activity was induced with 1 ng/ml of IL-1β in place of PMA.

Q: For `COC(c1ccc(NC(=O)C2CC2(C)C)cc1)c1ccc(NC(=O)C2CC2(C)C)cc1` (centres unmarked) [Compound 12], which IC50 is on record?
A: > 5 µg/mL

Q: How did the IC50 turn out when `CC1(C)CC1C(=O)Nc1ccc(Cc2ccc(N3C(=O)C4C5C=CC(C5)C4C3=O)cc2)cc1` (centres unmarked) [Compound 40] was run?
A: 1 µg/mL (≈ 2.27 µM)

Q: Which IC50 does the source give for `CC1(C)CC1C(=O)Nc1ccc(Sc2ccc(NC(=O)C3CC3(C)C)cc2)cc1` (centres unmarked) [Compound 2] here?
A: 0.1 µg/mL (≈ 0.245 µM)

Q: `COc1ccc(CC(=O)Nc2ccc(Cc3ccc(NC(=O)C4CC4(C)C)cc3)cc2)cc1` (centres unmarked) [Compound 24] was tested. Which IC50 did it give?
A: 0.1 µg/mL (≈ 0.226 µM)

Q: How did the IC50 turn out when `CC1(C)CC1C(=O)Nc1ccc(C(CC#N)c2ccc(NC(=O)C3CC3(C)C)cc2)cc1` (centres unmarked) [Compound 19] was run?
A: 1.2 µg/mL (≈ 2.79 µM)

Q: With `CC1(C)CC1C(=O)Nc1ccc(C(O)c2ccc(NC(=O)C3CC3(C)C)cc2)cc1` (centres unmarked) [Compound 11] as the compound, how does the IC50 read?
A: 0.12 µg/mL (≈ 0.295 µM)

Q: With `COc1ccc(CCCNc2ccc(Cc3ccc(NC(=O)C4CC4(C)C)cc3)cc2)cc1` (centres unmarked) [Compound 28] as the compound, how does the IC50 read?
A: 0.1 µg/mL (≈ 0.226 µM)

Q: For `CC1(C)CC1C(=O)Nc1ccc(C(CN)c2ccc(NC(=O)C3CC3(C)C)cc2)cc1` (centres unmarked) [Compound 18], which IC50 is on record?
A: 3 µg/mL (≈ 7.15 µM)

Q: `COc1ccc(CCCC(=O)Nc2ccc(Cc3ccc(NC(=O)C4CC4(C)C)cc3)cc2)cc1` (centres unmarked) [Compound 55] was tested. Which IC50 did it give?
A: 0.1 µg/mL (≈ 0.212 µM)

Q: How did the IC50 turn out when `CC1(C)CC1C(=O)Nc1ccc(CCc2ccc(NC(=O)C3CC3(C)C)cc2)cc1` (centres unmarked) [Compound 6] was run?
A: 0.37 µg/mL (≈ 0.915 µM)

Q: With `COc1ccc(CCC(=O)Nc2ccc(Cc3ccc(NC(=O)C4CC4(C)C)cc3)cc2)cc1` (centres unmarked) [Compound 26] as the compound, how does the IC50 read?
A: 0.1 µg/mL (≈ 0.219 µM)

Q: For `CC1(C)CC1C(=O)Nc1ccc(C(CC(=O)O)c2ccc(NC(=O)C3CC3(C)C)cc2)cc1` (centres unmarked) [Compound 20], which IC50 is on record?
A: 3 µg/mL (≈ 6.69 µM)

Q: How did the IC50 turn out when `COc1ccc(CCNc2ccc(Cc3ccc(NC(=O)C4CC4(C)C)cc3)cc2)cc1` (centres unmarked) [Compound 27] was run?
A: 0.1 µg/mL (≈ 0.233 µM)

Q: `CN(C)c1ccc(CC(=O)Nc2ccc(Cc3ccc(NC(=O)C4CC4(C)C)cc3)cc2)cc1` (centres unmarked) [Compound 25] was tested. Which IC50 did it give?
A: 0.03 µg/mL (≈ 0.0658 µM)

Q: For `CC1(C)CC1C(=O)Nc1ccc(C(N)c2ccc(NC(=O)C3CC3(C)C)cc2)cc1` (centres unmarked) [Compound 9], which IC50 is on record?
A: 2.5 µg/mL (≈ 6.16 µM)

Q: How did the IC50 turn out when `CC1(C)CC1C(=O)Nc1ccc(C(=O)c2ccc(NC(=O)C3CC3(C)C)cc2)cc1` (centres unmarked) [Compound 1] was run?
A: > 5 µg/mL

Q: `CC1(C)CC1C(=O)Nc1ccc(C(O)c2ccc(NC(=O)Cc3ccc(Cl)cc3)cc2)cc1` (centres unmarked) [Compound 44] was tested. Which IC50 did it give?
A: 1.5 µg/mL (≈ 3.24 µM)

Q: With `CC1(C)C[C@H]1C(=O)Nc1ccc(C(O)c2ccc(NC(=O)[C@@H]3CC3(C)C)cc2)cc1` [Compound 35] as the compound, how does the IC50 read?
A: > 5 µg/mL

Q: `CC1(C)CC1C(=O)Nc1ccc(C(CN=[N+]=[N-])c2ccc(NC(=O)C3CC3(C)C)cc2)cc1` (centres unmarked) [Compound 17] was tested. Which IC50 did it give?
A: 2.5 µg/mL (≈ 5.61 µM)

Q: How did the IC50 turn out when `COc1ccc(CC(=O)Nc2ccc(C(O)c3ccc(NC(=O)C4CC4(C)C)cc3)cc2)cc1` (centres unmarked) [Compound 45] was run?
A: 0.9 µg/mL (≈ 1.96 µM)

Q: `CC(=O)NC(c1ccc(NC(=O)C2CC2(C)C)cc1)c1ccc(NC(=O)C2CC2(C)C)cc1` (centres unmarked) [Compound 10] was tested. Which IC50 did it give?
A: > 5 µg/mL

Q: Which IC50 does the source give for `CC1(C)CC1C(=O)Nc1ccc(COc2ccc(NC(=O)C3CC3(C)C)cc2)cc1` (centres unmarked) [Compound 51] here?
A: 1 µg/mL (≈ 2.46 µM)

Q: With `CC1(C)CC1C(=O)Nc1ccc(S(=O)(=O)c2ccc(NC(=O)C3CC3(C)C)cc2)cc1` (centres unmarked) [Compound 5] as the compound, how does the IC50 read?
A: > 5 µg/mL

Q: With `CC1(C)CC1C(=O)Nc1ccc(Cc2ccc(NC(=O)C3CCCN3)cc2)cc1` (centres unmarked) [Compound 43] as the compound, how does the IC50 read?
A: 0.1 µg/mL (≈ 0.255 µM)

Q: `CC1(C)CC1C(=O)Nc1ccc(Cc2ccc(NC(=O)C3CC3(Cl)Cl)cc2)cc1` (centres unmarked) [Compound 23] was tested. Which IC50 did it give?
A: 0.1 µg/mL (≈ 0.232 µM)

Q: With `CC1(C)CC1C(=O)Nc1ccc(C(=NO)c2ccc(NC(=O)C3CC3(C)C)cc2)cc1` (centres unmarked) [Compound 8] as the compound, how does the IC50 read?
A: 5 µg/mL (≈ 11.9 µM)

Q: How did the IC50 turn out when `CC1(C)C[C@@H]1C(=O)Nc1ccc(C(O)c2ccc(NC(=O)[C@@H]3CC3(C)C)cc2)cc1` (some centres unmarked) [Compound 34] was run?
A: 0.06 µg/mL (≈ 0.148 µM)

Q: With `CC1(C)CC1C(=O)Nc1ccc(Nc2ccc(NC(=O)C3CC3(C)C)cc2)cc1` (centres unmarked) [Compound 3] as the compound, how does the IC50 read?
A: 1 µg/mL (≈ 2.55 µM)

Q: `CC1(C)CC1C(=O)Nc1ccc(Cc2cccc(NC(=O)C3CC3(C)C)c2)cc1` (centres unmarked) [Compound 7] was tested. Which IC50 did it give?
A: 0.37 µg/mL (≈ 0.947 µM)

Q: For `Cc1cc(Cc2ccc(NC(=O)C3CC3(C)C)c(C)c2)ccc1NC(=O)C1CC1(C)C` (centres unmarked) [Compound 38], which IC50 is on record?
A: 0.5 µg/mL (≈ 1.19 µM)

Q: Which IC50 does the source give for `CC1(C)CC1C(=O)Nc1ccc(Oc2ccc(NC(=O)C3CC3(C)C)cc2)cc1` (centres unmarked) [Compound 4] here?
A: 1.1 µg/mL (≈ 2.8 µM)

Q: Which IC50 does the source give for `CC1(C)CC1C(=O)Nc1ccc(CSc2ccc(NC(=O)C3CC3(C)C)cc2)cc1` (centres unmarked) [Compound 52] here?
A: 0.2 µg/mL (≈ 0.473 µM)
